Experimental data published in patent US8759522B2, “Inhibitors of protein tyrosine kinase activity” (Methylgene Inc., priority 2008, dated 2014).
pIC50: −log10 of the molar value.

Key:
[1] = molecular target: T1, VEGFR2 (KDR) (Homo sapiens, UniProt P35968); experiment: In vitro receptor tyrosine kinase assay (VEGF receptor KDR), DELFIA; type: biochemical; conditions: recombinant GST-VEGFR2 catalytic domain, ATP 0.6 uM, enzyme 5 nM
T1 construct: made in house; host or cells: Sf9 cells (Spodoptera frugiperda), baculovirus (Bac-to-Bac)
T1 sequence (P35968 806-1356): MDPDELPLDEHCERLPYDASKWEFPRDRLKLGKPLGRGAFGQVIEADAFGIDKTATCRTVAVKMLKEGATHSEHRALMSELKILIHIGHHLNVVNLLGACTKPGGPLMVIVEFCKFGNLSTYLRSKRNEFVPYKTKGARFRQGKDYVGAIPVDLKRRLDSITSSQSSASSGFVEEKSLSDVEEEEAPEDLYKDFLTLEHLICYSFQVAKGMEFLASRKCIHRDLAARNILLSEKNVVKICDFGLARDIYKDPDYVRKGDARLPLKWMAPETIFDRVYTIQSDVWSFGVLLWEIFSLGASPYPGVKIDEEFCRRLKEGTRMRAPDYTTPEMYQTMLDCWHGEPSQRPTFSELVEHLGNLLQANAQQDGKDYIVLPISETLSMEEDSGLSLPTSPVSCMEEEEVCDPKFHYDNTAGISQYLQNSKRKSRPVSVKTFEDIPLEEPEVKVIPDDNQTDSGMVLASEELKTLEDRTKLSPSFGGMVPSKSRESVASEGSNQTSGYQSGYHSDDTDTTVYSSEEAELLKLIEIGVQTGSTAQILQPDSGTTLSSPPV
Excerpt: In Vitro Receptor Tyrosine Kinase Assay (VEGF Receptor KDR)
This test measures the ability of compounds to inhibit the enzymatic activity of recombinant human VEGF receptor enzymatic activity.
A 1.6-kb cDNA corresponding to the catalytic domain of VEGFR2 (KDR) (Genbank accession number AF035121 amino acid 806 to 1356) is cloned into the Pst I site of the pDEST20 Gateway vector (Invitrogen) for the production of a GST-tagged version of that enzyme. This constuct is used to generate recombinant baculovirus using the Bac-to-Bac™ system according to the manucfacturer's instructions (Invitrogen).
The GST-VEGFR2806-1356 protein is expressed in Sf9 cells (Spodoptera frugiperda) upon infection with recombinant baculovirus construct. Briefly, Sf9 cells grown in suspension and maintained in serum-free medium (Sf900 II supplemented with gentamycin) at a cell density of about 2×10^6 cells/ml are infected with the above-mentioned viruses at a multiplicity of infection (MOI) of 0.1 during 72 hours at 27° C. with agitation at 120 rpm on a rotary shaker. Infected cells are harvested by centrifugation at 398 g for 15 min. Cell pellets are frozen at −80° C. until purification is performed.
All steps described in cell extraction and purification are performed at 4° C. Frozen Sf9 cell pellets infected with the GST-VEGFR2806-1356 recombinant baculovirus are thawed and gently resuspended in Buffer A (PBS pH 7.3 supplemented with 1 μg/ml pepstatin, 2 μg/ml Aprotinin and leupeptin, 50 μg/ml PMSF, 50 μg/ml TLCK and 10 μM E64 and 0.5 mM DTT) using 3 ml of buffer per gram of cells. Suspension is Dounce homogenized and 1% Triton X-100 is added to the homogenate after which it is centrifuged at 22500 g, 30 min., 4° C. The supernatant (cell extract) is used as starting material for purification of GST-VEGFR2806-1356.
The supernatant is loaded onto a GST-agarose column (Sigma) equilibrated with PBS pH 7.3. Following a four column volume (CV) wash with PBS pH 7.3+1% Triton X-100 and 4 CV wash with buffer B (50 mM Tris pH 8.0, 20% glycerol and 100mM NaCl), bound proteins are step eluted with 5 CV of buffer B supplemented with 5 mM DTT and 15 mM glutathion. GST-VEGFR2806-1356 enriched fractions from this chromatography step are pooled based on U.V. trace i.e. fractions with high O.D.280. Final GST-VEGFR2806-1356 protein preparations concentrations are about 0.7 mg/ml with purity approximating 70%. Purified GST-VEGFR2806-1356 protein stocks are aliquoted and frozen at −80° C. prior to use in enzymatic assay.
Inhibition of VEGFR/KDR is measured in a DELFIA™ assay (Perkin Elmer). The substrate poly(Glu4, Tyr) is immobilized onto black high-binding polystyrene 96-well plates. The coated plates are washed and stored at 4° C. During the assay, the enzyme is pre-incubated with inhibitor and Mg-ATP on ice in polypropylene 96-well plates for 4 minutes, and then transferred to the coated plates. The subsequent kinase reaction takes place at 30° C. for 10-30 minutes. ATP concentrations in the assay are 0.6 uM for VEGFR/KDR (2× the Km). Enzyme concentration is 5 nM. After incubation, the kinase reactions are quenched with EDTA and the plates are washed. Phosphorylated product is detected by incubation with Europium-labeled anti-phosphotyrosine MoAb. After washing the plates, bound MoAb is detected by time-resolved fluorescence in a Gemini SpectraMax reader (Molecular Devices). Compounds are evaluated over a range of concentrations and IC50's (concentration of compounds giving 50% inhibition of enzymatic activity) are determined. In the table, “a” indicates inhibitory activity at a concentration of less than 250 nanomolar; “b” indicates inhibitory activity at a concentration ≧250 but <500 nanomolar, “c” indicates inhibitory activity at ≧500 but <1000 nanomolar; and “d” indicates inhibitory activity ≧1000 nanomolar.

[2] = test system: VEGF-dependent Erk phosphorylation in HUVEC cells; experiment: VEGF-dependent Erk phosphorylation; type: cell-based; conditions: Homo sapiens, 1.5 h compound, VEGF165 150 ng/ml, phospho ERK1/2 Western blot
Excerpt: VEGF-Dependent Erk Phosphorylation
HUVEC cells were purchased from Cambrex Bio Science Walkersville, Inc and cultured according to the vendor's instructions. The full-length coding sequence of VEGF165 was cloned using the Gateway Cloning Technology (Invitrogen) for baculovirus expression Sf9 cells. VEGF165 was purified from conditioned media using a NaCl gradient elution from a HiTrap heparin column (GE Healthcare Life Sciences) followed by an imidazole gradient elution from a HiTrap chelating column (GE Healthcare Life Sciences), then buffer stored in PBS supplemented with 0.1% BSA and filter sterilized
Cells were seeded at 8000 cells/well of a 96 wells plate and grown for 48 hours. Cells were then grown overnight in serum and growth factor-free medium and exposed for 1.5 h to compounds dilutions. Following a 15 min incubation in medium, VEGF165 (150 ng/ml) cells were lysed in ice-cold lysis buffer (50 mM HEPES, pH 7.4, 150 mM NaCl, 1.5 mM MgCl2, 1% Triton X-100, 10% glycerol) containing 1 mM 4-(2 aminoethyl)benzenesulfonyl fluoride hydrochloride, 200 μM sodium orthovanadate, 1 mM sodium fluoride, 10 μg/mL leupeptin, 10 μg/mL aprotinin, 1 μg/mL pepstatin and 50 μg/mL Na-p-tosyl-L-lysine chloromethyl ketone hydrochloride and processed as Western blots to detect anti-phospho ERK1/2 (T202/Y204) (Cell Signaling Technologies).
lysates samples from single treatment wells were separated on 5-20% SDS-PAGE gels and immunobloting was performed using Immobilon polyvinylidene difluoride membranes (Amersham) according to the manufacturer's instructions.

Structure (SMILES)	pIC50 [1]	pIC50 [2]
COCCNCc1ccc(-c2cc3nccc(Oc4ccc(NC(=O)C5CC5)cc4F)c3s2)nc1	6.30 to 6.60	–
COCCNCc1ccc(-c2cc3nccc(Oc4ccc(NC(=O)N[C@@H]5CCOC5)cc4F)c3s2)nc1	≤ 6.00	> 6.60
COCCNCc1ccc(-c2cc3nccc(Oc4ccc(NC(=O)CC(=O)NC5CCC5)cc4F)c3s2)nc1	6.30 to 6.60	> 6.60
COCCNCc1ccc(-c2cc3nccc(Oc4ccc(NC(=O)OC5CCCCC5)cc4F)c3s2)nc1	≤ 6.00	> 6.60
COCCNCc1ccc(-c2cc3nccc(Oc4ccc(NC(=O)N[C@H]5CCOC5)cc4F)c3s2)nc1	6.00 to 6.30	> 6.60
COCCNCc1ccc(-c2cc3nccc(Oc4ccc(NC(=O)CC(=O)Nc5cccc(C(N)=O)c5)cc4F)c3s2)nc1	6.30 to 6.60	> 6.60
COCCNCc1ccc(-c2cc3nccc(Oc4ccc(NC(=O)NC(C)C)cc4F)c3s2)nc1	6.00 to 6.30	> 6.60
COCCN(Cc1ccc(-c2cc3nccc(Oc4ccc(NC(=O)NC5CC5)cc4F)c3s2)nc1)C(=O)OC	> 6.60	–
CCOC(=O)N(CCOC)Cc1ccc(-c2cc3nccc(Oc4ccc(NC(=O)NC5CC5)cc4F)c3s2)nc1	> 6.60	> 6.60
COCCOCCOCCOCCNCc1ccc(-c2cc3nccc(Oc4ccc(NC(=O)NC5CC5)cc4F)c3s2)nc1 [drawing 129]	> 6.60	> 6.60
COCCNCc1cnc(-c2cc3nccc(Oc4ccc(NC(=O)NC5CC5)cc4F)c3s2)n1C [drawing 131]	> 6.60	> 6.60
COCCNCc1cnc(-c2cc3nccc(Oc4ccc(NC(=O)Nc5ccc(F)cc5F)cc4F)c3s2)n1C [drawing 134]	> 6.60	> 6.60
COCCN(Cc1cnc(-c2cc3nccc(Oc4ccc(NC(=O)NC5CC5)cc4F)c3s2)n1C)S(C)(=O)=O [drawing 137]	> 6.60	> 6.60
COCCN(Cc1ccc(-c2cc3nccc(Oc4ccc(NC(=O)NC5CC5)cc4F)c3s2)nc1)C(=O)[C@H](N)C(C)C [drawing 143]	> 6.60	> 6.60
COCCN(Cc1ccc(-c2cc3nccc(Oc4ccc(NC(=O)Nc5cccc(S(C)(=O)=O)c5)cc4F)c3s2)nc1)C(C)=O [drawing 152]	> 6.60	> 6.60
COCCNCc1ccc(-c2cc3nccc(Oc4ccc(NC(=O)NC5CCC5)cc4F)c3s2)nc1 [drawing 153]	> 6.60	> 6.60
COCCN(Cc1ccc(-c2cc3nccc(Oc4ccc(NC(=O)Nc5cccc(C(N)=O)c5)cc4F)c3s2)nc1)C(=O)OC [drawing 160]	> 6.60	> 6.60

More lines, main results first:

pIC50 [1]	Structure (SMILES)	pIC50 [2]
> 6.60	COCCNCc1cccc(-c2cc3nccc(Oc4ccc(NC(=O)NC5CC5)cc4F)c3s2)n1	> 6.60
> 6.60	COCCNCc1ccc(-c2cc3nccc(Oc4ccc(NC(=O)Nc5cccc(C(N)=O)c5)cc4F)c3s2)nc1	> 6.60
> 6.60	COCCNCc1ccc(-c2cc3nccc(Oc4ccc(NC(=O)Nc5cccc(S(C)(=O)=O)c5)cc4F)c3s2)nc1	> 6.60
> 6.60	COCCNCc1cnc(-c2cc3nccc(Oc4ccc(NC(=O)Nc5cc(C(F)(F)F)ccc5F)cc4F)c3s2)n1C	> 6.60
> 6.60	COCCNCc1cnc(-c2cc3nccc(Oc4ccc(NC(=O)Nc5ccc(OC)cc5)cc4F)c3s2)n1C	> 6.60
> 6.60	COCCNCc1cnc(-c2cc3nccc(Oc4ccc(NC(=O)Nc5cccc(C(N)=O)c5)cc4F)c3s2)n1C	> 6.60
> 6.60	COCCNCc1ccc(-c2cc3nccc(Oc4ccc(NC(=O)Nc5cccc(C(=O)OC)c5)cc4F)c3s2)nc1	–
> 6.60	CNC(=O)c1cccc(NC(=O)Nc2ccc(Oc3ccnc4cc(-c5ccc(CNCCOC)cn5)sc34)c(F)c2)c1	–
> 6.60	COCCNCc1ccc(-c2cc3nccc(Oc4ccc(NC(=O)OC5CCC5)cc4F)c3s2)nc1	> 6.60
> 6.60	COCCN(Cc1ccc(-c2cc3nccc(Oc4ccc(NC(=O)Nc5cccc(C(N)=O)c5)cc4F)c3s2)nc1)C(C)=O	> 6.60
> 6.60	COCCOCCOCCOCCN(Cc1ccc(-c2cc3nccc(Oc4ccc(NC(=O)NC5CC5)cc4F)c3s2)nc1)C(C)=O	> 6.60
> 6.60	COCCNCc1ccc(-c2cc3nccc(Oc4ccc(NC(=O)Nc5ccn(C)n5)cc4F)c3s2)nc1	> 6.60
> 6.60	COCCNCc1ccc(-c2cc3nccc(Oc4ccc(NC(=O)Nc5cccc(C(=O)N(C)C)c5)cc4F)c3s2)nc1	> 6.60
> 6.60	COCCNCc1ccc(-c2cc3nccc(Oc4ccc(NC(=O)CC(=O)Nc5cccc(S(C)(=O)=O)c5)cc4F)c3s2)nc1	> 6.60
> 6.60	COCCN(Cc1ccc(-c2cc3nccc(Oc4ccc(NC(=O)Nc5cccc(C(=O)N(C)C)c5)cc4F)c3s2)nc1)C(C)=O	> 6.60
> 6.60	COCCNCc1ccc(-c2cc3nccc(Oc4ccc(NC(=O)Nc5ccc(F)cc5F)cc4F)c3s2)nc1	> 6.60
> 6.60	O=C(Nc1ccc(Oc2ccnc3cc(-c4ccc(C5OCCCO5)cn4)sc23)c(F)c1)NC1CC1	> 6.60
> 6.60	COCCN(Cc1ccc(-c2cc3nccc(Oc4ccc(NC(=O)Nc5cccc(S(C)(=O)=O)c5)cc4F)c3s2)nc1)C(=O)OC	> 6.60
> 6.60	COC[C@H](C)NCc1ccc(-c2cc3nccc(Oc4ccc(NC(=O)NC5CC5)cc4F)c3s2)nc1	> 6.60
